Assay results taken from patent US20240299359A1, “PHARMACEUTICAL COMPOSITION FOR ANIMALS CONTAINING 5-HYDROXY-METHYLIMIDAZOLIDINE-2,4-DIONE COMPOUND AS ACTIVE INGREDIENT” (KYONGBO PHARM. CO., LTD., priority 2021, published 2024).
Read-outs that look alike come from different tables or passages of the source.

Experiments:
[1] = system: dogs with chronic renal failure; assay: Therapeutic effect on dogs with chronic renal failure (blood creatinine); assay type: in vivo, dog; conditions: change before/after
Description: An experiment was conducted to determine the therapeutic effect and optimal dosage of 5-hydroxy-1-methylimidazolidine-2,4-dione in animal kidney disease. Dogs (5 dogs per group) diagnosed with chronic renal failure and with a blood creatinine concentration of 1.4 mg/dL or higher were treated with 5-hydroxy-methylimidazolidine-2,4-dione at […] of 0, 12.5, 25, 50, and 100 mg/kg for 2 months, and the change in blood creatinine concentration (AsCr) before and after administration was determined.

[2] = Pharmacokinetic analysis in beagles after oral administration; assay type: in vivo, beagle; conditions: for Cmax / AUC(0-inf) / AUC(0-t) / half-life / Tmax: beagle, dog, plasma, mean; for Cmax: po, read-out: Cmax (average highest plasma concentration); for Tmax: read-out: tmax (time of highest plasma concentration)
Description: For this purpose, 5-hydroxy-1-methylimidazolidine-2,4-dione was weighed, based on the fasting weight measured on the day of administration, using an electronic scale in accordance with the oral doses of 10, 50, 100, and 200 mg/kg for each experimental group, and was added to a 500 ml glass container, DW (distilled water) was added as an excipient, and the drug was dissolved therein through vortexing and stirring. Then, the beagles used in the subsequent experiments were acclimatized and environmentally adapted for about a week before the test, and then the compound was orally administered to each beagle at the doses listed in the table below. In addition, the beagles used in this experiment were bred and kept at the Endik Institute.
The compound was administered orally, blood was collected in a volume of 3 ml using a syringe from the jugular vein of the experimental beagle at each time (0 (before administration), 0.25, 0.5, 1, 1.5, 2, 4, 8, 12, and 24 hours), the collected blood was centrifuged at 4,000 rpm/10 minutes at 4° C. and dispensed into 500 μl of a set of two separate 1.5 ml tubes, and the remaining plasma was dispensed into another set and immediately stored in a deep freezer at −70° C. until analysis. The concentration of 5-hydroxy-1-methylimidazolidine-2,4-dione in the collected plasma was measured using the following method.
First, a standard sample solution for preparing a calibration curve was prepared. 1.2 mg of standard 5-hydroxy-1-methylimidazolidine-2,4-dione was dissolved in 0.12 ml of DMSO to prepare a stock solution having a final concentration of 10 mg/ml. Then, the stock solution was diluted to a final concentration of 500, 1,000, 2,000, 5,000, 10,000, 30,000, 100,000, 300,000, and 1,000,000 ng/ml with 70% acetonitrile as a solvent. Then, for an internal standard sample solution, 5.0 mg of 4-methylumbelliferone was dissolved in acetonitrile to prepare a final stock solution of 5 mg/ml, which was then diluted with acetonitrile to obtain a final concentration of 200 ng/ml.
To prepare a calibration curve using each solution prepared above, standard 5-hydroxy-1-methylimidazolidine-2,4-dione was dissolved in DMSO to prepare a 10 mg/ml standard stock solution and then the standard stock solution was frozen at −20° C., and the prepared standard stock solution was diluted with 70% acetonitrile to prepare a working solution. The working solution was diluted with blank plasma stored frozen below −20° C. (working standard solution 10%, blank plasma 90%) to prepare standard plasma to adjust the concentration of analyte in plasma to […]. 20 μl of each standard plasma was placed in a 1.5 ml micro-tube and then 180 μl of internal standard solution (200 ng/ml in ACN) was added thereto. After vortexing for 5 minutes, centrifugation was performed at 4° C. and 17,600×g for 5 minutes. 150 μl of the supernatant was transferred to a 300 μl screw vial, 5 μl of the supernatant was injected into the HPLCMS/MS system, and a calibration curve was plotted at the ratio of the peak area of the analyte to the obtained peak area of the internal standard.
Then, the plasma sample collected from the beagle was subjected to the following pretreatment for assay. 180 μl of the internal standard solution was added to 20 μl of the plasma sample to induce protein precipitation. Then, the mixed sample was suspended using a vortex mixer for 5 minutes, centrifuged at 17,600×g for 5 minutes, and 150 μl of the supernatant was transferred to an analysis container. Then, 5 μl of the supernatant was injected into a HPLC/MS/MS system and analysis was performed. The instruments used for analysis were an HPLC system (Agilent 1100 Series with on-line degasser, binary pump, thermostatted well-plate autosampler and column compartment) and an MS/MS system (SCIEX 4000 QTRAP System). […]

[3] = system: beagles; assay: 13-week repeated oral toxicity: eye test; assay type: in vivo, beagle; conditions: before and after administration, 13 weeks
Description: Eye test were conducted in the afternoon in the blood test day and blood donation day before administration (pre), the 4th week (day 29) after administration, the 8th week (day 57), and the 13th week (day 92) after administration. After observing the appearance of the left and right eyes on all the subjects, both the left and right eyes were dilated with a mydriatic agent (Mydrin®-P eye drops, ingredients: tropicamide/phenylephrine hydrochloride Taejun Pharmaceutical), and then the vitreous body and retina were tested with an ophthalmoscope (Vantage Plus LED Convertible Wired, Keeler Instruments Inc. USA).

[4] = oral G3 (100 ng/kg [sic]; text 100 mg/kg)

For `CN1C(=O)NC(=O)C1O` (centres unmarked) [KBP-001, 5-hydroxy-1-methylimidazolidine-2,4-dione], the ΔsCr ([1]; high-dose 50 mg/kg for 2 months, 50 mg/kg) was -0.02 ± 0.22 mg/dL, the ΔsCr ([1]; high-dose 50 mg/kg for 2 months, listed as 5-hydroxy-1-methylimidazolidine-2,4-dione, 50 mg/kg) was -0.02 ± 0.22 mg/dL and the ΔsCr ([1]; highest-dose 100 mg/kg for 2 months, 100 mg/kg) was 0.07 ± 0.20 mg/dL. It also gave a ΔsCr ([1]; highest-dose 100 mg/kg for 2 months, listed as 5-hydroxy-1-methylimidazolidine-2,4-dione, 100 mg/kg) of 0.07 ± 0.20 mg/dL, a ΔsCr ([1]; low-dose 12.5 mg/kg for 2 months, 12.5 mg/kg) of 0.58 ± 0.49 mg/dL and a ΔsCr ([1]; low-dose 12.5 mg/kg for 2 months, listed as 5-hydroxy-1-methylimidazolidine-2,4-dione, 12.5 mg/kg) of 0.58 ± 0.49 mg/dL. It also gave a ΔsCr ([1]; medium-dose 25 mg/kg for 2 months, 25 mg/kg) of 0.10 ± 0.34 mg/dL, a ΔsCr ([1]; medium-dose 25 mg/kg for 2 months, listed as 5-hydroxy-1-methylimidazolidine-2,4-dione, 25 mg/kg) of 0.10 ± 0.34 mg/dL and a Cmax ([2]; 10 mg/kg, oral 10 mg/kg (G1)) of 15 µg/mL. It also gave a Cmax ([2]; 100 mg/kg, oral G3 (100 ng/kg [sic]; text 100 mg/kg)) of 102 µg/mL, a Cmax ([2]; 200 mg/kg, oral 200 mg/kg (G4)) of 233 µg/mL and an AUC(0-inf) ([2]; oral 10 mg/kg (G1)) of 66.2 µg·h/mL. It also gave an AUC(0-t) ([2]; oral 10 mg/kg (G1)) of 65.4 µg·h/mL, a half-life ([2]; oral 10 mg/kg (G1)) of 2.89 h and a Tmax ([2]; oral 10 mg/kg (G1)) of 0.6 h. The AUC(0-inf) ([2]; oral 50 mg/kg (G2)) was 289 µg·h/mL, the AUC(0-t) ([2]; oral 50 mg/kg (G2)) was 288 µg·h/mL and the half-life ([2]; oral 50 mg/kg (G2)) was 2.8 h. The Tmax ([2]; oral 50 mg/kg (G2)) was 0.35 h, the AUC(0-inf) ([2]; oral 200 mg/kg (G4)) was 1120 µg·h/mL and the AUC(0-t) ([2]; oral 200 mg/kg (G4)) was 1110 µg·h/mL. It also gave a half-life ([2]; oral 200 mg/kg (G4)) of 2.9 h, a Tmax ([2]; oral 200 mg/kg (G4)) of 0.45 h and an AUC(0-inf) [2, 4] of 468 µg·h/mL. It also gave an AUC(0-t) [2, 4] of 466 µg·h/mL, a half-life [2, 4] of 2.97 h and a Tmax [2, 4] of 0.8 h. For the same compound, the adverse reactions ([2]; single oral 10, 50, 100, 200 mg/kg, until end of PK test) was “no adverse reactions were observed” and the eye test findings [3] was “no specific findings were observed”.
